Reference: the supplement of paper PMC10307832

What was measured:
Experiment in all cases: relative viability (nuclei count vs DMSO), 5 days (fraction); higher = more cells survive
ABC-1 = tested on: ABC-1
Procedure, shortened: (§1)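 Values are medians from duplicate plates. Each reflects relative viability, defined as the nuclei count of treated wells over that of vehicle wells. Lung cancer cell lines in 1536-well plates were pin-tool dosed one day after seeding with one drug alone or with a fixed anchor-drug dose plus five library-drug doses (not always all listed) in √10 steps, then fixed, stained and imaged at 4× after 5 days.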

CAL-12T = tested on: CAL-12T
Procedure, shortened: as §1

COR-L 105 = tested on: COR-L 105
Procedure, shortened: as §1

ChaGo-K-1 = tested on: ChaGo-K-1
Procedure, shortened: as §1

EMC-BAC-2 = tested on: EMC-BAC-2
Procedure, shortened: as §1

EPLC-272H = tested on: EPLC-272H
Procedure, shortened: as §1

HCC-15 = tested on: HCC-15
Procedure, shortened: as §1

HCC-78 = tested on: HCC-78
Procedure, shortened: as §1

HOP-62 = tested on: HOP-62
Procedure, shortened: as §1

LXF-289 = tested on: LXF-289
Procedure, shortened: as §1

NCI-H1666 = tested on: NCI-H1666
Procedure, shortened: as §1

NCI-H1755 = tested on: NCI-H1755
Procedure, shortened: as §1

NCI-H1915 = tested on: NCI-H1915
Procedure, shortened: as §1

NCI-H1975 = tested on: NCI-H1975
Procedure, shortened: as §1

NCI-H1993 = tested on: NCI-H1993
Procedure, shortened: as §1

NCI-H2023 = tested on: NCI-H2023
Procedure, shortened: as §1

NCI-H2085 = tested on: NCI-H2085
Procedure, shortened: as §1

NCI-H2126 = tested on: NCI-H2126
Procedure, shortened: as §1

NCI-H3122 = tested on: NCI-H3122
Procedure, shortened: as §1

NCI-H322M = tested on: NCI-H322M
Procedure, shortened: as §1

NCI-H358 = tested on: NCI-H358
Procedure, shortened: as §1

NCI-H441 = tested on: NCI-H441
Procedure, shortened: as §1

UMC-11 = tested on: UMC-11
Procedure, shortened: as §1

Clc1ccc(Nc2nnc(Cc3ccncc3)c3ccccc23)cc1 [Vatalanib] + C[C@@H](Oc1cc(-c2cnn(C3CCNCC3)c2)cnc1N)c1c(Cl)ccc(F)c1Cl [Crizotinib] (partner 1 µM)
relative viability (ABC-1; first compound 0.04 µM): 1.01
relative viability (ABC-1; first compound 0.1265 µM): 1
relative viability (ABC-1; first compound 0.4 µM): 1.37
relative viability (ABC-1; first compound 1.265 µM): 0.89
relative viability (ABC-1; first compound 4 µM): 1.13
relative viability (CAL-12T; first compound 0.04 µM): 0.651
relative viability (CAL-12T; first compound 0.1265 µM): 0.523
relative viability (CAL-12T; first compound 0.4 µM): 0.686
relative viability (CAL-12T; first compound 1.265 µM): 0.446
relative viability (CAL-12T; first compound 4 µM): 0.746
relative viability (COR-L 105; first compound 0.04 µM): 0.818
relative viability (COR-L 105; first compound 0.1265 µM): 0.677
relative viability (COR-L 105; first compound 0.4 µM): 0.938
relative viability (COR-L 105; first compound 1.265 µM): 0.73
relative viability (COR-L 105; first compound 4 µM): 0.827
relative viability (ChaGo-K-1; first compound 0.04 µM): 1.18
relative viability (ChaGo-K-1; first compound 0.1265 µM): 1.14
relative viability (ChaGo-K-1; first compound 1.265 µM): 1.1
relative viability (ChaGo-K-1; first compound 4 µM): 1.09
relative viability (EMC-BAC-2; first compound 0.04 µM): 0.703
relative viability (EMC-BAC-2; first compound 0.1265 µM): 0.76
relative viability (EMC-BAC-2; first compound 0.4 µM): 0.75
relative viability (EMC-BAC-2; first compound 1.265 µM): 0.752
relative viability (EMC-BAC-2; first compound 4 µM): 0.742
relative viability (EPLC-272H; first compound 0.04 µM): 0.836
relative viability (EPLC-272H; first compound 0.1265 µM): 0.779
relative viability (EPLC-272H; first compound 0.4 µM): 0.965
relative viability (EPLC-272H; first compound 1.265 µM): 0.919
relative viability (EPLC-272H; first compound 4 µM): 0.955
relative viability (HCC-15; first compound 0.04 µM): 0.9
relative viability (HCC-15; first compound 0.1265 µM): 0.768
relative viability (HCC-15; first compound 0.4 µM): 0.79
relative viability (HCC-15; first compound 1.265 µM): 0.812
relative viability (HCC-15; first compound 4 µM): 0.841
relative viability (HCC-78; first compound 0.04 µM): 0.318
relative viability (HCC-78; first compound 0.1265 µM): 0.324
relative viability (HCC-78; first compound 0.4 µM): 0.35
relative viability (HCC-78; first compound 4 µM): 0.306
relative viability (HOP-62; first compound 0.04 µM): 0.921
relative viability (HOP-62; first compound 0.4 µM): 0.948
relative viability (HOP-62; first compound 1.265 µM): 0.911
relative viability (HOP-62; first compound 4 µM): 0.904
relative viability (LXF-289; first compound 0.04 µM): 0.665
relative viability (LXF-289; first compound 0.1265 µM): 0.743
relative viability (LXF-289; first compound 0.4 µM): 0.807
relative viability (LXF-289; first compound 1.265 µM): 0.717
relative viability (LXF-289; first compound 4 µM): 0.78
relative viability (NCI-H1666; first compound 0.04 µM): 0.968
relative viability (NCI-H1666; first compound 0.1265 µM): 0.985
relative viability (NCI-H1666; first compound 0.4 µM): 1.06
relative viability (NCI-H1666; first compound 1.265 µM): 0.889
relative viability (NCI-H1666; first compound 4 µM): 0.742
relative viability (NCI-H1755; first compound 0.04 µM): 0.886
relative viability (NCI-H1755; first compound 0.1265 µM): 0.821
relative viability (NCI-H1755; first compound 0.4 µM): 0.942
relative viability (NCI-H1755; first compound 1.265 µM): 0.802
relative viability (NCI-H1755; first compound 4 µM): 0.773
relative viability (NCI-H1915; first compound 0.04 µM): 0.939
relative viability (NCI-H1915; first compound 0.1265 µM): 0.869
relative viability (NCI-H1915; first compound 0.4 µM): 0.885
relative viability (NCI-H1915; first compound 1.265 µM): 0.92
relative viability (NCI-H1915; first compound 4 µM): 0.918
relative viability (NCI-H1975; first compound 0.04 µM): 0.946
relative viability (NCI-H1975; first compound 0.1265 µM): 0.856
relative viability (NCI-H1975; first compound 0.4 µM): 0.959
relative viability (NCI-H1975; first compound 1.265 µM): 0.845
relative viability (NCI-H1975; first compound 4 µM): 0.821
relative viability (NCI-H1993; first compound 0.04 µM): 0.948
relative viability (NCI-H1993; first compound 0.1265 µM): 0.853
relative viability (NCI-H1993; first compound 0.4 µM): 0.935
relative viability (NCI-H1993; first compound 1.265 µM): 0.805
relative viability (NCI-H1993; first compound 4 µM): 0.846
relative viability (NCI-H2023; first compound 0.04 µM): 0.571
relative viability (NCI-H2023; first compound 0.1265 µM): 0.667
relative viability (NCI-H2023; first compound 0.4 µM): 0.698
relative viability (NCI-H2023; first compound 1.265 µM): 0.605
relative viability (NCI-H2023; first compound 4 µM): 0.559
relative viability (NCI-H2085; first compound 0.04 µM): 0.754
relative viability (NCI-H2085; first compound 0.1265 µM): 0.779
relative viability (NCI-H2085; first compound 0.4 µM): 1.04
relative viability (NCI-H2085; first compound 1.265 µM): 0.787
relative viability (NCI-H2085; first compound 4 µM): 0.888
relative viability (NCI-H2126; first compound 0.04 µM): 0.977
relative viability (NCI-H2126; first compound 0.1265 µM): 1.03
relative viability (NCI-H2126; first compound 0.4 µM): 1.05
relative viability (NCI-H2126; first compound 1.265 µM): 1.07
relative viability (NCI-H2126; first compound 4 µM): 0.992
relative viability (NCI-H3122; first compound 0.04 µM): 0.25
relative viability (NCI-H3122; first compound 0.1265 µM): 0.274
relative viability (NCI-H3122; first compound 0.4 µM): 0.269
relative viability (NCI-H3122; first compound 1.265 µM): 0.249
relative viability (NCI-H3122; first compound 4 µM): 0.288
relative viability (NCI-H322M; first compound 0.04 µM): 1.02
relative viability (NCI-H322M; first compound 0.1265 µM): 0.891
relative viability (NCI-H322M; first compound 0.4 µM): 0.958
relative viability (NCI-H322M; first compound 1.265 µM): 0.858
relative viability (NCI-H322M; first compound 4 µM): 0.939
relative viability (NCI-H358; first compound 0.04 µM): 0.641
relative viability (NCI-H358; first compound 0.1265 µM): 0.522
relative viability (NCI-H358; first compound 0.4 µM): 0.8
relative viability (NCI-H358; first compound 1.265 µM): 0.585
relative viability (NCI-H358; first compound 4 µM): 0.602
relative viability (NCI-H441; first compound 0.04 µM): 0.851
relative viability (NCI-H441; first compound 0.1265 µM): 0.605
relative viability (NCI-H441; first compound 0.4 µM): 0.72
relative viability (NCI-H441; first compound 1.265 µM): 0.835
relative viability (NCI-H441; first compound 4 µM): 0.831
relative viability (UMC-11; first compound 0.04 µM): 0.616
relative viability (UMC-11; first compound 0.1265 µM): 0.585
relative viability (UMC-11; first compound 0.4 µM): 0.719
relative viability (UMC-11; first compound 1.265 µM): 0.586
relative viability (UMC-11; first compound 4 µM): 0.629
